Measurements published in US5070210A, “Novel ketenimines as intermediates for insecticides” (ICI Americas Inc., priority 1990, dated 1991).

Tests used:
Format in all cases: in vivo
[1] = system: Housefly [Musca domestica]; assay: Housefly insecticidal test; settings: μg per 25 female flies; mortality after 48 hours
How it was run: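 Dry-film exposure of 25 female houseflies per cage, 48 h; LC50 as μg per 25 flies.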

[2] = system: Tobacco Budworm [Heliothis virescens (Fabricius)] eggs; assay: Tobacco budworm egg test; settings: 2-day old eggs, percent in solution
How it was run: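 LC50 values (percent test compound in the dip solution) were calculated from dosage-mortality curves. Egg patches, 2 days old, were dipped in acetone solutions at concentrations from 0.1% downward and held at 78° F on rearing medium until control larvae hatched and fed.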

[3] = system: Cabbage Looper [Trichoplusia ni (Hubner)]; assay: Cabbage looper insecticidal test; settings: second-instar larvae, percent in solution; 3-5 days
How it was run: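 Leaf dip, squash cotyledons, 50-50 acetone-water, top dose 0.1% and lower. 5 second-instar larvae/dish, moist filter paper, high-humidity chamber. Mortality at 3-5 d; LC50 (% in solution) from dosage-mortality curves.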

[4] = system: Maize weevil [Sitophilus Zeamais (Motschulsky)]; assay: Maize weevil insecticidal test; settings: adult weevils, percent in solution; 48 hours
Protocol: The compounds in Tables 1 and 2 above were tested for insecticidal activity using the following testing procedures. LC50 values, based on the results of these tests and calculated according to dosage-mortality curves, are expressed in Table 3.
Maize weevil [Sitophilus Zeamais (Motschulsky)]:
Test compounds were diluted in a 50:50 acetone:water solution. Four corn seeds [Zea mays (L.)] which had been immersed in test solutions for 2-3 seconds and allowed to dry were placed in containers together with 10 adult weevils. The containers were covered and kept at a temperature of about 25° C. Mortality was recorded after 48 hours. Test concentrations ranged from 0.01% down to that at which 50% mortalilty occurred. The LC50 values are expressed below in Table 3 under the heading "MW" in terms of percent of the test compound in solution.

For `CC(C)C(=Nc1ccc(Cl)c(C(F)(F)F)c1)OCc1ccc(F)c(Oc2ccc(F)cc2)c1` [Compound 340], the “LC50, HF” value [1] was 34 µg, the “LC50, TBW, E (TBW-E)” value [2] was 0.04% and the “LC50, CL” value [3] was 0.00037%. The “LC50, MW” value [4] was 0.0069%.

In the case of `CC(C)C(=Nc1cccc(Cl)c1)OCc1ccc(F)c(Oc2ccc(F)cc2)c1` [Compound 341], the “LC50, HF” value [1] is reported as 4 µg, the “LC50, TBW, E (TBW-E)” value [2] is reported as 0.023% and the “LC50, CL” value [3] is reported as 0.0005%. The “LC50, MW” value [4] was greater than 0.01%.

In the case of `CC(C)C(=Nc1cccc(F)c1)OCc1ccc(F)c(Oc2ccc(F)cc2)c1` [Compound 342], the “LC50, HF” value [1] is reported as 4.1 µg, the “LC50, TBW, E (TBW-E)” value [2] is reported as 0.04% and the “LC50, CL” value [3] is reported as 0.0008%. For the same compound, the “LC50, MW” value [4] was greater than 0.01%.

With `Cc1ccc(Oc2cccc(COC(=Nc3ccc(C(C)(C)C)cc3)C(C)C)c2)cc1` [Compound 344] the “LC50, HF” value [1] was greater than 100 µg, the “LC50, TBW, E (TBW-E)” value [2] was greater than 0.1% and the “LC50, CL” value [3] was 0.024%. For the same compound, the “LC50, MW” value [4] was greater than 0.01%.

`COc1ccc(Oc2cccc(COC(=Nc3ccc(C(C)(C)C)cc3)C(C)C)c2)cc1` [Compound 345] was tested, and the “LC50, HF” value [1] was greater than 100 µg, the “LC50, TBW, E (TBW-E)” value [2] was greater than 0.1% and the “LC50, CL” value [3] was 0.018%. For the same compound, the “LC50, MW” value [4] was greater than 0.01%.

With `CCOc1ccc(N=C(OCc2cccc(Oc3ccccc3)c2)C(C)C)cc1Cl` [Compound 368] the “LC50, HF” value [1] was less than 100 µg, the “LC50, TBW, E (TBW-E)” value [2] was 0.04% and the “LC50, CL” value [3] was 0.002%. For the same compound, the “LC50, MW” value [4] was greater than 0.01%.

`CCOc1ccc(N=C(OCc2cccc(Oc3ccccc3)c2)C(C)C)cc1` [Compound 371] was tested, and the “LC50, HF” value [1] was less than 100 µg, the “LC50, TBW, E (TBW-E)” value [2] was greater than 0.1% and the “LC50, CL” value [3] was 0.0022%. The “LC50, MW” value [4] was greater than 0.01%.

With `CCOc1ccc(N=C(OCc2ccc(F)c(Oc3ccc(Cl)cc3)c2)C(C)C)cc1` [Compound 372] the “LC50, HF” value [1] was greater than 100 µg, the “LC50, TBW, E (TBW-E)” value [2] was greater than 0.1% and the “LC50, CL” value [3] was greater than 0.1%. The “LC50, MW” value [4] was greater than 0.01%.

For `CCOc1ccc(N=C(OCc2ccc(F)c(Oc3ccccc3)c2)C(C)C)cc1` [Compound 373], the “LC50, HF” value [1] was less than 100 µg, the “LC50, TBW, E (TBW-E)” value [2] was greater than 0.1% and the “LC50, CL” value [3] was greater than 0.1%. For the same compound, the “LC50, MW” value [4] was greater than 0.01%.

For `CC(C)C(=Nc1ccc(I)c(Cl)c1)OCc1cccc(Oc2ccc(F)cc2)c1` [Compound 374], the “LC50, HF” value [1] was less than 100 µg, the “LC50, TBW, E (TBW-E)” value [2] was 0.02% and the “LC50, CL” value [3] was 0.00058%. For the same compound, the “LC50, MW” value [4] was greater than 0.01%.

For `CC(C)C(=Nc1ccc(F)c(Br)c1)OCc1ccc(F)c(Oc2ccc(Cl)cc2)c1` [Compound 379], the “LC50, HF” value [1] was less than 100 µg, the “LC50, TBW, E (TBW-E)” value [2] was 0.02% and the “LC50, CL” value [3] was 0.00075%. For the same compound, the “LC50, MW” value [4] was greater than 0.01%.

`CC(C)C(=Nc1ccc(Br)c(Br)c1)OCc1ccc(F)c(Oc2ccc(F)cc2)c1` [Compound 383] was tested, and the “LC50, HF” value [1] was less than 100 µg, the “LC50, TBW, E (TBW-E)” value [2] was 0.038% and the “LC50, CL” value [3] was 0.00029%. For the same compound, the “LC50, MW” value [4] was greater than 0.01%.

With `CC(C)C(=Nc1ccc(Br)c(Br)c1)OCc1ccc(F)c(Oc2ccccc2)c1` [Compound 384] the “LC50, HF” value [1] was less than 100 µg, the “LC50, TBW, E (TBW-E)” value [2] was 0.025% and the “LC50, CL” value [3] was greater than 0.1%. For the same compound, the “LC50, MW” value [4] was greater than 0.01%.

`CC(C)C(=Nc1ccc(I)c(Cl)c1)OCc1ccc(F)c(Oc2ccc(F)cc2)c1` [Compound 385] was tested, and the “LC50, HF” value [1] was less than 100 µg, the “LC50, TBW, E (TBW-E)” value [2] was greater than 0.1% and the “LC50, CL” value [3] was greater than 0.1%. For the same compound, the “LC50, MW” value [4] was greater than 0.01%.

With `CC(C)C(=Nc1cccc(Br)c1)OCc1ccc(F)c(Oc2ccc(Cl)cc2)c1` [Compound 386] the “LC50, HF” value [1] was less than 100 µg, the “LC50, TBW, E (TBW-E)” value [2] was greater than 0.1% and the “LC50, CL” value [3] was 0.0012%. The “LC50, MW” value [4] was greater than 0.01%.

`CC(C)C(=Nc1ccc(Cl)c(C(F)(F)F)c1)OCc1ccc(F)c(Oc2ccccc2)c1` [Compound 388] was tested, and the “LC50, HF” value [1] was less than 100 µg, the “LC50, TBW, E (TBW-E)” value [2] was greater than 0.1% and the “LC50, CL” value [3] was 0.0012%. The “LC50, MW” value [4] was greater than 0.01%.

For `CC(C)C(=Nc1cccc(I)c1)OCc1cccc(Oc2ccc(Cl)cc2)c1` [Compound 389], the “LC50, HF” value [1] was less than 100 µg, the “LC50, TBW, E (TBW-E)” value [2] was greater than 0.1% and the “LC50, CL” value [3] was 0.00069%. For the same compound, the “LC50, MW” value [4] was greater than 0.01%.

With `CC(C)C(=Nc1cccc(Cl)c1)OCc1ccc(F)c(Oc2ccc(Cl)cc2)c1` [Compound 390] the “LC50, HF” value [1] was less than 100 µg, the “LC50, TBW, E (TBW-E)” value [2] was 0.045% and the “LC50, CL” value [3] was 0.0021%. The “LC50, MW” value [4] was greater than 0.01%.

In the case of `CC(C)C(=Nc1ccc(C#N)cc1)OCc1ccc(F)c(Oc2ccc(Cl)cc2)c1` [Compound 392], the “LC50, HF” value [1] is reported as less than 100 µg, the “LC50, TBW, E (TBW-E)” value [2] is reported as 0.039% and the “LC50, CL” value [3] is reported as 0.00034%. The “LC50, MW” value [4] was greater than 0.01%.

`CC(C)C(=Nc1ccc(C#N)cc1)OCc1cccc(Oc2ccc(Cl)cc2)c1` [Compound 393] was tested, and the “LC50, HF” value [1] was less than 100 µg, the “LC50, TBW, E (TBW-E)” value [2] was greater than 0.1% and the “LC50, CL” value [3] was 0.00037%. For the same compound, the “LC50, MW” value [4] was greater than 0.01%.

For `CC(C)C(=Nc1ccc(C#N)cc1)OCc1ccc(F)c(Oc2ccc(F)cc2)c1` [Compound 394], the “LC50, HF” value [1] was less than 100 µg, the “LC50, TBW, E (TBW-E)” value [2] was 0.05% and the “LC50, CL” value [3] was 0.00025%. For the same compound, the “LC50, MW” value [4] was greater than 0.01%.

With `CC(C)C(=Nc1ccc(F)c(Cl)c1F)OCc1ccc(F)c(Oc2ccc(Cl)cc2)c1` [Compound 395] the “LC50, HF” value [1] was 8.6 µg, the “LC50, TBW, E (TBW-E)” value [2] was 0.018% and the “LC50, CL” value [3] was less than 0.1%. The “LC50, MW” value [4] was 0.004%.

In the case of `Cc1cc(N=C(OCc2ccc(F)c(Oc3ccc(F)cc3)c2)C(C)C)ccc1F` [Compound 396], the “LC50, HF” value [1] is reported as less than 100 µg, the “LC50, TBW, E (TBW-E)” value [2] is reported as less than 0.1% and the “LC50, CL” value [3] is reported as 0.0017%. For the same compound, the “LC50, MW” value [4] was greater than 0.01%.

For `Cc1cc(N=C(OCc2cccc(Oc3ccc(Cl)cc3)c2)C(C)C)ccc1F` [Compound 397], the “LC50, HF” value [1] was less than 100 µg, the “LC50, TBW, E (TBW-E)” value [2] was less than 0.1% and the “LC50, CL” value [3] was 0.0019%. For the same compound, the “LC50, MW” value [4] was greater than 0.01%.

In the case of `CC(C)C(=Nc1ccc(F)c(Br)c1)OCc1cccc(Oc2ccc(Cl)cc2)c1` [Compound 398], the “LC50, HF” value [1] is reported as less than 100 µg, the “LC50, TBW, E (TBW-E)” value [2] is reported as less than 0.1% and the “LC50, CL” value [3] is reported as less than 0.1%. The “LC50, MW” value [4] was greater than 0.01%.

With `Cc1cc(N=C(OCc2ccc(F)c(Oc3ccc(Cl)cc3)c2)C(C)C)ccc1F` [Compound 399] the “LC50, HF” value [1] was less than 100 µg, the “LC50, TBW, E (TBW-E)” value [2] was 0.025% and the “LC50, CL” value [3] was 0.0012%. The “LC50, MW” value [4] was greater than 0.01%.

For `Cc1cc(N=C(OCc2ccc(F)c(Oc3ccccc3)c2)C(C)C)ccc1F` [Compound 400], the “LC50, HF” value [1] was less than 100 µg, the “LC50, TBW, E (TBW-E)” value [2] was 0.025% and the “LC50, CL” value [3] was 0.0007%. The “LC50, MW” value [4] was greater than 0.01%.

For `Cc1cccc(N=C(OCc2ccc(F)c(Oc3ccc(Cl)cc3)c2)C(C)C)c1` [Compound 401], the “LC50, HF” value [1] was less than 100 µg, the “LC50, TBW, E (TBW-E)” value [2] was 0.04% and the “LC50, CL” value [3] was 0.0017%. The “LC50, MW” value [4] was greater than 0.01%.

With `Cc1ccc(N=C(OCc2cccc(Oc3ccc(F)cc3)c2)C(C)C)cc1Cl` [Compound 402] the “LC50, HF” value [1] was less than 100 µg, the “LC50, TBW, E (TBW-E)” value [2] was greater than 0.1% and the “LC50, CL” value [3] was greater than 0.1%. For the same compound, the “LC50, MW” value [4] was greater than 0.01%.

With `Cc1ccc(N=C(OCc2cccc(Oc3ccc(Cl)cc3)c2)C(C)C)cc1Cl` [Compound 403] the “LC50, HF” value [1] was less than 100 µg, the “LC50, TBW, E (TBW-E)” value [2] was greater than 0.1% and the “LC50, CL” value [3] was greater than 0.1%. For the same compound, the “LC50, MW” value [4] was greater than 0.01%.

In the case of `Cc1ccc(N=C(OCc2ccc(F)c(Oc3ccc(Cl)cc3)c2)C(C)C)cc1Cl` [Compound 404], the “LC50, HF” value [1] is reported as less than 100 µg, the “LC50, TBW, E (TBW-E)” value [2] is reported as 0.025% and the “LC50, CL” value [3] is reported as greater than 0.1%. The “LC50, MW” value [4] was greater than 0.01%.

For `Cc1cccc(N=C(OCc2cccc(Oc3ccc(F)cc3)c2)C(C)C)c1` [Compound 405], the “LC50, HF” value [1] was less than 100 µg, the “LC50, TBW, E (TBW-E)” value [2] was greater than 0.1% and the “LC50, CL” value [3] was greater than 0.1%. The “LC50, MW” value [4] was greater than 0.01%.
